Measured values as given in patent publication US20240408067A1, “SOLID STATE FORMS OF NIROGACESTAT SALTS” (TEVA PHARMACEUTICALS INTERNATIONAL GMBH, priority 2021, published 2024).
Structures can show the parent of a compound that is named as a salt.

Assays:
Assay type in all cases: physicochemical
[1] = Storage stability at different relative humidities, ambient temperature, 7 days (XRPD)
Procedure: (§1) X-ray diffraction was performed on X-Ray powder diffractometer: Bruker D8 Advance; CuKα radiation (λ=1.5418 Å); Lynx eye detector; laboratory temperature 22-25° C.; PMMA specimen holder ring with silicon low background. Prior to analysis, the samples were gently ground by means of mortar and pestle in order to obtain a fine powder. The ground sample was adjusted into a cavity of the sample holder and the surface of the sample was smoothed by means of a cover glass. • Scan range: 2-40 degrees 2-theta; • Scan mode: continuous; • Step size: 0.05 degrees; • Time per step: 0.5 s; • Sample spin: 30 rpm; • Sample holder: PMMA specimen holder ring with silicon low background. Samples of Nirogacestat dihydrobromide Form NT1 and Nirogacestat hydrobromide Form NHBr1 were subjected to conditions of different relative humidity at ambient temperature. XRPD analysis was performed on the samples after 7 days.

[2] = Storage stability at different relative humidity and temperatures, 6 months (XRPD); details: for XRPD analysis results, 25° C., 60% RH / XRPD analysis results, 40° C., 75% RH: 6 months
Procedure: as §1, with “NT1” for “NT1 and Nirogacestat hydrobromide Form NHBr1”, “different temperatures.” for “ambient temperature.”, “6 months.” for “7 days.”

[3] = Grinding experiments (strong grinding, solvent drop grinding; XRPD); details: for XRPD analysis results, strong grinding: about 20 mg ground with a pestle for 2 minutes, sample alone; for Stability to solvent drop grinding: isopropanol or no solvent
Procedure: X-ray diffraction was performed on X-Ray powder diffractometer: Bruker D8 Advance; CuKα radiation (λ=1.5418 Å); Lynx eye detector; laboratory temperature 22-25° C.; PMMA specimen holder ring with silicon low background. Prior to analysis, the samples were gently ground by means of mortar and pestle in order to obtain a fine powder. The ground sample was adjusted into a cavity of the sample holder and the surface of the sample was smoothed by means of a cover glass. • Scan range: 2-40 degrees 2-theta; • Scan mode: continuous; • Step size: 0.05 degrees; • Time per step: 0.5 s; • Sample spin: 30 rpm; • Sample holder: PMMA specimen holder ring with silicon low background. […] […] In these experiments, about 20 mg of the sample is placed in a mortar and ground with a pestle for 2 minutes. The solvent, when used, was added to the crystalline material before grinding, in a volume of 10 microlitres. XRPD analysis performed on the sample after the grinding experiment, confirmed no change in the starting material (Table 3):

[4] = Thermal stability, heating up to 100° C. (XRPD); details: heating up to 100° C. for 30 minutes
Procedure: as §1, with “to heating up to 100° C. for 30 minutes.” for “to conditions of different relative humidity at ambient temperature.”, “analysis of” for “analysis was performed on”, “the sample confirmed there to be no change in the starting material (Table 4): […]” for “the samples after 7 days.”

[5] = Stability under pressure of 2 tons
[6] = listed as Form NT1, dihydrobromide salt
[7] = listed as Nirogacestat dihydrobromide Form NT1, dihydrobromide salt
[8] = listed as Form NT1 of Nirogacestat dihydrobromide, dihydrobromide salt
[9] = listed as Nirogacestat dihydrobromide form NT1, dihydrobromide salt
[10] = listed as Form NHBr1 of Nirogacestat hydrobromide, hydrobromide salt
[11] = listed as Nirogacestat hydrobromide Form NHBr1, hydrobromide salt

CCC[C@H](N[C@H]1CCc2cc(F)cc(F)c2C1)C(=O)Nc1cn(C(C)(C)CNCC(C)(C)C)cn1 [Nirogacestat dihydrobromide salt]
No change: XRPD analysis results, 25° C., 60% RH [2, 7] | XRPD analysis results, 40° C., 75% RH [2, 7] | XRPD analysis results, strong grinding ([3]; dihydrobromide salt) | XRPD analysis results, solvent-drop grinding (ethanol) ([3]; ground 2 minutes, 10 microlitres solvent, ethanol) | XRPD analysis results, solvent-drop grinding (water) ([3]; ground 2 minutes, 10 microlitres solvent, water)
no change: XRPD analysis results, strong grinding [3, 7] | Stability to solvent drop grinding [3, 7] | Result, heating 100° C., 30 minutes [4, 7]
stable: XRPD analysis results, relative humidity 20% ([1]; 20% RH, ambient temperature, 7 days, listed as Form NT1, dihydrobromide salt) | XRPD analysis results, relative humidity 40% ([1]; 40% RH, ambient temperature, 7 days, listed as Form NT1, dihydrobromide salt) | XRPD analysis results, relative humidity 60% ([1]; 60% RH, ambient temperature, 7 days, listed as Form NT1, dihydrobromide salt) | XRPD analysis results, relative humidity 80% ([1]; 80% RH, ambient temperature, 7 days, listed as Form NT1, dihydrobromide salt) | Stability after exposure to high and low relative humidity ([1]; at least 7 days, summary of Table 1) | XRPD analysis results, 25° C., 60% RH [2, 6] | XRPD analysis results, 40° C., 75% RH [2, 6] | Stability after exposure to high and low relative humidity at different temperatures ([2]; at least 6 months, summary of Table 2) | XRPD analysis results, strong grinding [3, 8] | XRPD analysis results, strong grinding [3, 9] | Stability to solvent drop grinding [3, 9] | Result, heating 100° C., 30 minutes [4, 8] | Result, heating 100° C., 30 minutes [4, 9] | Stability under pressure [5]
resistant to polymorphic changes: Resistance to polymorphic changes on grinding ([3]; summary of Table 3)
Stable: Result, heating 100° C., 30 minutes ([4]; dihydrobromide salt)

CCC[C@H](N[C@H]1CCc2cc(F)cc(F)c2C1)C(=O)Nc1cn(C(C)(C)CNCC(C)(C)C)cn1 [Nirogacestat hydrobromide salt]
No change: XRPD analysis results, strong grinding ([3]; hydrobromide salt)
Stable: Result, heating 100° C., 30 minutes ([4]; hydrobromide salt)
stable: XRPD analysis results, strong grinding [3, 10] | Result, heating 100° C., 30 minutes [4, 10]
no change: XRPD analysis results, strong grinding [3, 11] | Stability to solvent drop grinding [3, 11] | Result, heating 100° C., 30 minutes [4, 11]
